Laboratory results from US20230270723A1, “GLUCOKINASE ACTIVATOR FOR TREATING DIABETES WITH HEPATIC IMPAIRMENT” (HUA Medicine (Shanghai) Ltd., priority 2020, published 2023).
Like-named read-outs stand apart in the source and are kept apart here.

Legend:
[1] = Plasma protein binding (PPB) analysis, free drug percentage (fu); type: in vitro ADME; details: human, oral, 25 mg
Description: (§1) Eligible subjects were admitted to the Phase 1 study ward on either Day −2 or Day −1 to complete the baseline examination, and re-confirmed the inclusion/exclusion criteria by the investigator and fed a standardized meal after admission. Subjects were fasted at least 10 hours overnight while water was not deprived after the standardized dinner on Day −1, and received a single dose of dorzagliatin 25 mg (25 mg/tablet, 1 tablet) with 240 mL of warm water on the morning of Day 1. Subjects should start the standardized breakfast about 1 hour after administration and complete the meal within 30 minutes. Blood samples for PK and plasma protein binding (PPB) analyses were collected at specified time points within 1 hour pre-dose through 72 hours post-dose. The corresponding safety indicators at preset time points were detected for safety assessment.
(§2) Pharmacokinetic Evaluation • PK blood sampling time: Within 1 hour pre-dose and 0.25, 0.5, 1, 1.5, 2, 2.5, 3, 4, 6, 8, 12, 24, 36, 48 and 72 hours post-dose of dorzagliatin on Day 1. • PPB blood sampling time: Within 1 hour pre-dose and 1 hour post-dose of dorzagliatin. • Bioanalytical method: dorzagliatin in plasma was analyzed using a validated method of liquid chromatography-tandem mass spectrometry (LC-MS/MS). • PK parameters. Primary PK endpoint: Cmax, AUClast, AUCinf; Secondary PK endpoint (if applicable): Cmax,u, AUClast,u, AUCinf,u, Tmax, T1/2, CL/F, Vz/F, fu.

[2] = Phase I single oral dose pharmacokinetic study of dorzagliatin in subjects with mild or moderate hepatic impairment and healthy subjects (plasma, LC-MS/MS, non-compartmental); type: in vivo, human; details: for AUC(0-inf) / AUC(0-t) / Cmax / half-life / Vd/F / Tmax: both sexes, human, plasma, po, 25 mg; for Vd/F: read-out: Vz/F; for Tmax: median
Description: This phase I study is to access the pharmacokinetics and safety of a single dose of dorzagliatin in subjects with mild or moderate hepatic impairment, and heathy subjects. […] The eligible subjects of Groups A and B are matched closely with the healthy subjects of Group C as to their sexes, ages (±5 yrs), and BMIs (±15%).
on Day −2 or −1, eligible subjects are admitted to a clinical research center (CRC). […], the subjects have no additional food after a standard dinner for at least 10 h. In the morning of Day 1, the subjects each receive dorzagliatin (25 mg) orally with empty stomach. One hour later, the subjects have a standardized breakfast. Blood samples are collected at the following time points: within 60 min pre-dose; and at 0.25, 0.5, 1, 1.5, 2, 2.5, 3, 4, 6, 8, 12, 24, 36, 48, and 72 h post-dose. The samples are analyzed using LC-MS/MS. The plasma concentration-time data for dorzagliatin are analyzed using a non-compartmental model to obtain PK parameters, including Cmax, AUClast, and AUCinf. An ANOVA analysis is performed on the data between Group C and Groups A and B.
Study design: This study was designed to evaluate the PK and safety of a single oral dose of dorzagliatin 25 mg in subjects with hepatic impairment compared with matched healthy subjects using an open label, single-center, parallel study design. The study population (as shown in Table 1) consisted of subjects with mild (group A) and moderate (group B) hepatic impairment and healthy subjects (group C) matched for sex, mean age, and mean BMI. The number of subjects who completed the study in each group was not less than 8, both male and female, and no less than 3 subjects of a single sex in each group.
as §1, §2

[3] = Safety evaluation (adverse events) after single oral dose of dorzagliatin 25 mg; type: in vivo, human
Description: Safety Evaluation • Physical examination: Evaluated at screening, baseline, Day 2, Day 3, discharge examination on Day 4. • Vital signs: Evaluated at screening, baseline, 24 and 48 hours post-dose, discharge examination on Day 4. • 12-lead ECG: Evaluated at screening, baseline, 24 hours and 48 hours post-dose, discharge examination on Day 4. Test once at each time point. • Hematology, blood biochemistry and urinalysis: Evaluated at screening, baseline, 24 hours, 48 hours and 72 hours post-dose. • Adverse events (AEs): All the subjects are observed for any AEs occurring from the signing of the ICF to the end of study. The clinical manifestations, severity, occurrence time, end time (if applicable), treatment measure, outcome and other information of each AE are recorded, and the correlation between an AE and the study drugs is judged.

[4] = single oral dose 25 mg, healthy group, arithmetic mean
[5] = single oral dose 25 mg, mild hepatic impairment group, arithmetic mean
[6] = single oral dose 25 mg, moderate hepatic impairment group, arithmetic mean
[7] = moderate hepatic impairment group

SMILES: CC(C)C[C@@H](C(=O)Nc1ccn(C[C@@H](O)CO)n1)N1CC(Oc2ccccc2Cl)=CC1=O [dorzagliatin, (S)-2-(4-(2-chlorophenoxy)-2-oxo-2,5-dihydro-1H-pyrrol-1-yl)-N-(1-((R)-2,3-dihydroxypropyl)-1H-pyrazol-3-yl)-4-methylpentanamide]
- fraction unbound ([1]; free drug percentage in plasma, healthy group, arithmetic mean, read-out: fu): 0.0646
- fraction unbound ([1]; free drug percentage in plasma, mild hepatic impairment group (N=7), arithmetic mean, read-out: fu): 0.0719
- fraction unbound ([1]; free drug percentage in plasma, moderate hepatic impairment group, arithmetic mean, read-out: fu): 0.0832
- fraction unbound ([1]; healthy group, read-out: free drug percentage (fu), geometric mean): 0.0639
- fraction unbound ([1]; mild hepatic impairment group, read-out: free drug percentage (fu), geometric mean): 0.0712
- fraction unbound ([1]; moderate hepatic impairment group, read-out: free drug percentage (fu), geometric mean): 0.0829
- AUC(0-inf) ([2]; free drug, single oral dose 25 mg, healthy group, arithmetic mean, read-out: AUCinf,u): 123 ng·h/mL
- AUC(0-t) ([2]; free drug, single oral dose 25 mg, healthy group, arithmetic mean, read-out: AUClast,u): 122 ng·h/mL
- AUC(0-inf) ([2]; free drug, single oral dose 25 mg, healthy group, read-out: AUCinf,u, geometric least squares mean): 119 ng·h/mL
- AUC(0-t) ([2]; free drug, single oral dose 25 mg, healthy group, read-out: AUClast,u, geometric least squares mean): 118 ng·h/mL
- AUC(0-inf) ([2]; free drug, single oral dose 25 mg, mild hepatic impairment group (N=7), arithmetic mean, read-out: AUCinf,u): 170 ng·h/mL
- AUC(0-t) ([2]; free drug, single oral dose 25 mg, mild hepatic impairment group (N=7), arithmetic mean, read-out: AUClast,u): 169 ng·h/mL
- AUC(0-inf) ([2]; free drug, single oral dose 25 mg, moderate hepatic impairment group, arithmetic mean, read-out: AUCinf,u): 287 ng·h/mL
- AUC(0-t) ([2]; free drug, single oral dose 25 mg, moderate hepatic impairment group, arithmetic mean, read-out: AUClast,u): 284 ng·h/mL
- AUC(0-inf) ([2]; free drug, single oral dose 25 mg, moderate hepatic impairment group, read-out: AUCinf,u, geometric least squares mean): 282 ng·h/mL
- AUC(0-t) ([2]; free drug, single oral dose 25 mg, moderate hepatic impairment group, read-out: AUClast,u, geometric least squares mean): 280 ng·h/mL
- Cmax ([2]; single oral dose 25 mg, fasted, healthy group, arithmetic mean, read-out: Cmax): 325 ng/mL
- Cmax ([2]; single oral dose 25 mg, fasted, mild hepatic impairment group (Child-Pugh 5-6), arithmetic mean, read-out: Cmax): 382 ng/mL
- Cmax ([2]; single oral dose 25 mg, fasted, moderate hepatic impairment group (Child-Pugh 7-9), arithmetic mean, read-out: Cmax): 370 ng/mL
- half-life [2, 4]: 6.22 h
- AUC(0-inf) ([2]; single oral dose 25 mg, healthy group, arithmetic mean, read-out: AUCinf): 1910 ng·h/mL
- AUC(0-t) ([2]; single oral dose 25 mg, healthy group, arithmetic mean, read-out: AUClast): 1890 ng·h/mL
- Vd/F [2, 4]: 122 L
- Tmax ([2]; single oral dose 25 mg, healthy group): 1.75 h
- AUC(0-inf) ([2]; single oral dose 25 mg, healthy group, read-out: AUCinf, geometric least squares mean): 1870 ng·h/mL
- AUC(0-t) ([2]; single oral dose 25 mg, healthy group, read-out: AUClast, geometric least squares mean): 1840 ng·h/mL
- Cmax ([2]; single oral dose 25 mg, healthy group, read-out: Cmax, geometric least squares mean): 307 ng/mL
- half-life [2, 5]: 6.25 h
- AUC(0-inf) ([2]; single oral dose 25 mg, mild hepatic impairment group, arithmetic mean, read-out: AUCinf): 2260 ng·h/mL
- AUC(0-t) ([2]; single oral dose 25 mg, mild hepatic impairment group, arithmetic mean, read-out: AUClast): 2240 ng·h/mL
- Vd/F [2, 5]: 106 L
- Tmax ([2]; single oral dose 25 mg, mild hepatic impairment group): 1.5 h
- AUC(0-inf) ([2]; single oral dose 25 mg, mild hepatic impairment group, read-out: AUCinf, geometric least squares mean): 2190 ng·h/mL
- AUC(0-t) ([2]; single oral dose 25 mg, mild hepatic impairment group, read-out: AUClast, geometric least squares mean): 2170 ng·h/mL
- Cmax ([2]; single oral dose 25 mg, mild hepatic impairment group, read-out: Cmax, geometric least squares mean): 370 ng/mL
- half-life [2, 6]: 8.04 h
- AUC(0-inf) ([2]; single oral dose 25 mg, moderate hepatic impairment group, arithmetic mean, read-out: AUCinf): 3450 ng·h/mL
- AUC(0-t) ([2]; single oral dose 25 mg, moderate hepatic impairment group, arithmetic mean, read-out: AUClast): 3410 ng·h/mL
- Vd/F [2, 6]: 85.2 L
- AUC(0-t) ([2]; single oral dose 25 mg, moderate hepatic impairment group, mean, read-out: AUClast): 3410 ng·h/mL
- Tmax ([2]; single oral dose 25 mg, moderate hepatic impairment group): 1.5 h
- AUC(0-inf) ([2]; single oral dose 25 mg, moderate hepatic impairment group, read-out: AUCinf, geometric least squares mean): 3410 ng·h/mL
- AUC(0-t) ([2]; single oral dose 25 mg, moderate hepatic impairment group, read-out: AUClast, geometric least squares mean): 3370 ng·h/mL
- Cmax ([2]; single oral dose 25 mg, moderate hepatic impairment group, read-out: Cmax, geometric least squares mean): 362 ng/mL
- Cmax,u, geometric least squares mean ([2]; free drug, single oral dose 25 mg, healthy group): 19.7 ng/mL
- Cmax,u ([2]; free drug, single oral dose 25 mg, healthy group, arithmetic mean): 21.0 ng/mL
- Cmax,u ([2]; free drug, single oral dose 25 mg, mild hepatic impairment group (N=7), arithmetic mean): 28.8 ng/mL
- Cmax,u, geometric least squares mean ([2]; free drug, single oral dose 25 mg, moderate hepatic impairment group): 30.0 ng/mL
- Cmax,u ([2]; free drug, single oral dose 25 mg, moderate hepatic impairment group, arithmetic mean): 30.7 ng/mL
- increase of geometric mean of AUCinf compared with healthy subjects ([2]; mild hepatic impairment group): ~17%
- increase of geometric mean of AUClast compared with healthy subjects ([2]; mild hepatic impairment group): approximately 18%
- increase of geometric mean of Cmax compared with healthy subjects ([2]; mild hepatic impairment group): approximately 20%
- effect of mild hepatic impairment on clearance and exposure level ([2]; mild hepatic impairment vs healthy subjects): no significant effect
- increase of geometric mean of AUCinf compared with healthy subjects [2, 7]: ~83%
- increase of geometric mean of AUClast compared with healthy subjects [2, 7]: ~83%
- increase of geometric mean of Cmax compared with healthy subjects [2, 7]: approximately 18%
- increase of geometric mean of free AUCinf compared with the healthy group [2, 7]: ~137%
- increase of geometric mean of free AUClast compared with the healthy group [2, 7]: ~137%
- clearance and exposure level in moderate hepatic impairment ([2]; moderate hepatic impairment vs healthy subjects): the drug clearance was decreased and the exposure level was increased
- increase of AUC of free drug compared with healthy subjects ([2]; moderate hepatic impairment, conclusion, AUC not further specified): ~137%
- absorption after oral administration ([2]; single oral dose 25 mg): rapidly absorbed
- CL/F [2, 4]: 13.7 L/h
- CL/F [2, 5]: 11.8 L/h
- CL/F [2, 6]: 7.43 L/h
- number of AEs ([3]; all subjects): 20
- number of TEAEs ([3]; all subjects): 18
- number of TEAEs considered possibly related to the study drug ([3]; all subjects): 10
- subjects with TEAEs considered possibly related to the study drug ([3]; all subjects): 25.0%
- SAEs, death, or significant TEAEs ([3]; all subjects, during the study): no SAEs, death, or significant TEAEs
- subjects who experienced TEAEs ([3]; all subjects, mild in most cases): 33.3%
- subjects who experienced AEs ([3]; all subjects, single oral dose 25 mg): 33.3%
- subjects who experienced AEs ([3]; healthy group): No subjects
- number of AEs ([3]; mild hepatic impairment group): 13
- number of TEAEs considered possibly related to the study drug ([3]; mild hepatic impairment group): 8
- subjects who experienced AEs ([3]; mild hepatic impairment group): 62.5%
- subjects with TEAEs considered possibly related to the study drug ([3]; mild hepatic impairment group): 50.0%
- number of AEs [3, 7]: 7
- number of TEAEs considered possibly related to the study drug [3, 7]: 2
- subjects who experienced AEs [3, 7]: 37.5%
- subjects with TEAEs considered possibly related to the study drug [3, 7]: 25.0%
- safety and tolerability ([3]; single oral dose, subjects with mild and moderate hepatic impairment): safe and well tolerated
